{"source": "patent US12090252B2", "about": "“Method for producing retinal tissues” (RIKEN, priority 2017, dated 2024)", "assay_type_in_all_cases": "cell-based", "key": {"[1]": {"test_system": "cell aggregates containing a retinal tissue produced from human ES cells", "test": "CRX-positive and TRβ2-positive cells in retinal tissue, about day 70 of suspension culture (immunostaining, Image J)", "conditions": "about day 70 (day 71-75) from start of suspension culture; T3 60 nM from day 38; BMP4 0.15 nM or Cyclopamine-KAAD 500 nM from day 22", "experimental": "(§1) A cell aggregate containing a retinal tissue in an initial developmental stage was prepared by the method described in “Kuwahara et al. Nat Commun 2015, 19(6), 6286-” after modification in part. That is, the aforementioned cultured ES cells were individually dispersed using TRYPLE™ Express cell dispersion solution (Invitrogen), and the individually dispersed human ES cells were suspended in 100 μL of a serum-free medium in a cell non-adhesive 96 well culture plate (SUMILON spheroid plate, SUMITOMO BAKELITE CO., LTD.) at 9×10^3 cells per well to allow rapid formation of aggregates, after which they were cultured at 37° C., 5% CO2. As the serum-free medium therefor, a serum-free medium obtained by adding 10% KSR, 450 μM 1-monothioglycerol, 1× Chemically defined lipid concentrate, 5 mg/mL BSA, 20 μM Y27632 to a 1:1 mixture of F-12 medium and IMDM medium was used. At 6 days after the start of suspension culture, BMP4 at a final concentration of 1.5 nM was added and suspension culture was continued. A half amount of the culture medium in the well was exchanged with the above-mentioned medium not supplemented with a BMP signal transduction pathway agonist every 3 or 4 days. A cell aggregate containing a retinal tissue at day 18 from the start of suspension culture was cultured in suspension in a serum-free medium (DMEM/F12 medium supplemented with 1% N2 supplement) containing 3 μM CHIR99021 and 5 μM SU5402 for 4 days, namely, up to day 22 from the start of suspension culture. Thereafter, suspension culture of the cell aggregate containing the retinal tissue was continued until it was appropriately used for analysis and the like. As the culture medium during this period, serum-containing media shown in the following to [3] were used and the cell aggregate was cultured under 5% CO2 conditions. • [1] day 22 to day 38 from the start of suspension culture; DMEM/F12 medium supplemented with 10% fetal calf serum, 1% N2 supplement, and 100 μM taurine (hereinafter to be referred to as medium A). • [2] day 38 to day 60 from the start of suspension culture; a 1:3 mixed medium of medium A, and Neurobasal medium supplemented with 10% fetal calf serum, 2% B27 supplement, […], and 100 μM taurine (hereinafter to be referred to as medium B). • [3] after day 60 or later from the start of suspension culture: medium B.\nThe cell aggregates containing a retinal tissue shown in Example 4 were prepared by respectively adding T3 or dorsalization signal transmitter (BMP4) as follows in the method described in Example 1. • [1]-T3 group (FIG. 4a, FIG. 4e, FIG. 4i); using the culture medium described in Example 1, culture was performed without addition up to day 75 from the start of suspension culture. • [2] +T3 group (FIG. 4b, FIG. 4f, FIG. 4j); using the culture medium described in Example 1, 60 nM T3 was further added from day 38 from the start of suspension culture to the completion of suspension culture, and cultured up to day 71 from the start of suspension culture. • [3] +T3+BMP group (FIG. 4c, FIG. 4g, FIG. 4k); using the culture medium described in Example 1, 0.15 nM BMP4 and 60 nM T3 were further added respectively from day 22, day 38 from the start of suspension culture to the completion of suspension culture, and cultured up to day 71 from the start of suspension culture. • [4] +T3+Cyclopamine-KAAD group (FIG. 4d, FIG. 4h, FIG. 4l); using the culture medium described in Example 1, 500 nM Cyclopamine-KAAD and 60 nM T3 were further added respectively from day 22, day 38 from the start of suspension culture to the completion of suspension culture, and cultured up to day 71 from the start of suspension culture.\nAfter fixing cell aggregates containing retinal tissue cultured under the above conditions with 4% para-formaldehyde, cryosections were prepared and subjected to immunostaining using CRX, TRβ2(TRb2) antibody, or DAPI staining for staining the cell nucleus."}, "[2]": {"test_system": "cell aggregates containing a retinal tissue produced from human ES cells", "test": "PAX6/CHX10 cell proportions in retinal tissue, about day 190 of suspension culture (immunostaining, Image J)", "experimental": "as §1\nThe cell aggregates containing a retinal tissue shown in Example 5 were prepared by respectively adding T3 or dorsalization signal transmitter as follows in the method described in Example 1. • [1]-T3 group (FIG. 5a, FIG. 5g, FIG. 5m); using the culture medium described in Example 1, culture was performed without addition up to day 191 from the start of suspension culture. • [2] +T3 group (FIG. 5b, FIG. 5h, FIG. 5n); using the culture medium described in Example 1, 60 nM T3 was further added from day 38 to day 130 from the start of suspension culture, and thereafter cultured up to day 188 from the start of suspension culture. From day 130 to day 188, medium B described in Example 1 was used. • [3] +BMP group (FIG. 5c, FIG. 5i, FIG. 5o); using the culture medium described in Example 1, 0.15 nM BMP4 was further added from day 22 to day 100 from the start of suspension culture, and thereafter cultured up to day 191 from the start of suspension culture. From day 100 to day 191, medium described in Example 1 was used. • [4] +T3+BMP group (FIG. 5d, FIG. 5j, FIG. 5p); using the culture medium described in Example 1, 0.15 nM BMP4 was further added from day 22 to day 100 from the start of suspension culture, 60 nM T3 was added from day 38 to day 130 from the start of suspension culture, and thereafter cultured up to day 188 from the start of suspension culture."}, "[3]": {"test_system": "cell aggregates containing a retinal tissue produced from human ES cells", "test": "CRX:Venus, RXR-γ and NRL cell proportions in retinal tissue, about day 190 of suspension culture (immunostaining, Image J)", "conditions": "about day 190 (day 188-193); T3 60 nM day 38-130; BMP4 0.15 nM or Cyclopamine-KAAD 500 nM day 22-100", "experimental": "as §1\nThe cell aggregates containing a retinal tissue shown in Example 6 were prepared by respectively adding T3 or dorsalization signal transmitter (BMP4 or Cyclopamine-KAAD) as follows in the method described in Example 1. • [1]-T3 group (FIG. 6a, FIG. 6e, FIG. 6i, FIG. 6m); using the culture medium described in Example 1, culture was performed without addition up to day 191 from the start of suspension culture. • [2] +T3 group (FIG. 6b, FIG. 6f, FIG. 6j, FIG. 6n); using the culture medium described in Example 1, 60 nM T3 was further added from day 38 to day 130 from the start of suspension culture, and thereafter cultured up to day 192 from the start of suspension culture. From day 130 to day 192, medium described in Example 1 was used. • [3] +T3+BMP group (FIG. 6c, FIG. 6g, FIG. 6k, FIG. 6o); using the culture medium described in Example 1, 0.15 nM BMP4 was further added from day 22 to day 100 from the start of suspension culture, 60 nM T3 was added from day 38 to day 130 from the start of suspension culture, and thereafter cultured up to day 188 from the start of suspension culture. From day 130 to day 188, medium described in Example 1 was used. • [4] +T3+Cyclopamine-KAAD group (FIG. 6d, FIG. 6h, FIG. 6l, FIG. 6p); using the culture medium described in Example 1, 500 nM Cyclopamine-KAAD was further added from day 22 to day 100 from the start of suspension culture, 60 nM T3 was added from day 38 to day 130 from the start of suspension culture, and thereafter cultured up to day 193 from the start of suspension culture. From day 130 to day 193, medium described in Example 1 was used."}, "[4]": {"conditions": "about day 190 (day 188-191), T3 60 nM day 38-130, BMP4 0.15 nM or Cyclopamine-KAAD 500 nM day 22-100"}}}
{"substance": "BMP4: BMP protein, BMP signal transduction pathway agonist used as dorsalization signal transmitter", "values": [{"measurement": "CRX-positive and TRβ2-positive cells (cone photoreceptor precursor)", "setting": "[1]", "result": 10.8, "unit": "%"}, {"measurement": "CRX-positive cells (photoreceptor precursor) contained in retinal tissue", "setting": "[1]", "result": 17.0, "unit": "%"}, {"measurement": "PAX6-negative/CHX10-strongly positive cells (bipolar cells)", "setting": "[2]; [4]", "result": 15.49, "unit": "%"}, {"measurement": "PAX6-strongly positive/CHX10-negative cells (any of ganglion cell, amacrine cell, horizontal cell)", "setting": "[2]; [4]", "result": 24.60, "unit": "%"}, {"measurement": "PAX6-strongly positive/CHX10-negative cell and PAX6-negative/CHX10-strongly positive cell, observation with fluorescent microscope", "setting": "[2]; day 188-191, groups added with T3 compared to groups with no addition", "result": "many"}, {"measurement": "CRX-positive cells (CRX:Venus-positive, photoreceptor precursor)", "setting": "[3]", "result": 37.7, "unit": "%"}, {"measurement": "NRL-positive cells among CRX-positive cells (rod photoreceptor precursor)", "setting": "[3]", "result": 6.1, "unit": "%"}, {"measurement": "RXR-γ-positive and NRL-negative cell among CRX-positive cells (cone photoreceptor precursor)", "setting": "[3]", "result": 31.3, "unit": "%"}]}
